Data as given in ChEMBL document CHEMBL5608247, “Development of a First-in-Class DNMT1/HDAC Inhibitor with Improved Therapeutic Potential and Potentiated Antitumor Immunity” (J Med Chem, 2024).

Legend:
Histone deacetylase = assay: Inhibition of HDAC extracted from human HeLa cell nucleus using Boc-Lys(Ac)-AMC as substrate preincubated for 5 mins followed by substrate addition measured after 30 mins by fluorescence based assay; format: subcellular
MV4-11 [1] = assay: Antitumor activity against human MV4-11 cells xenografted in BALB/c nude mouse at 45 mg/kg, ip qd treated for 19 days relative to control; format: functional; details: MV4-11, 456 h, time 19 day, read-out: TGI
[2] = biological target: T1, DNA (cytosine-5)-methyltransferase 1 (Homo sapiens, UniProt P26358); assay: Inhibition of NLuc-fused DNMT1 expressed hypomorphic in human HCT-116 cells assessed as TSG repoter activation at 3 uM incubated for 72 hrs by Nano-Glo Luciferase assay; format: cell-based
Target sequence in this assay (P26358 whole entry, looked up, the tested form may be a part): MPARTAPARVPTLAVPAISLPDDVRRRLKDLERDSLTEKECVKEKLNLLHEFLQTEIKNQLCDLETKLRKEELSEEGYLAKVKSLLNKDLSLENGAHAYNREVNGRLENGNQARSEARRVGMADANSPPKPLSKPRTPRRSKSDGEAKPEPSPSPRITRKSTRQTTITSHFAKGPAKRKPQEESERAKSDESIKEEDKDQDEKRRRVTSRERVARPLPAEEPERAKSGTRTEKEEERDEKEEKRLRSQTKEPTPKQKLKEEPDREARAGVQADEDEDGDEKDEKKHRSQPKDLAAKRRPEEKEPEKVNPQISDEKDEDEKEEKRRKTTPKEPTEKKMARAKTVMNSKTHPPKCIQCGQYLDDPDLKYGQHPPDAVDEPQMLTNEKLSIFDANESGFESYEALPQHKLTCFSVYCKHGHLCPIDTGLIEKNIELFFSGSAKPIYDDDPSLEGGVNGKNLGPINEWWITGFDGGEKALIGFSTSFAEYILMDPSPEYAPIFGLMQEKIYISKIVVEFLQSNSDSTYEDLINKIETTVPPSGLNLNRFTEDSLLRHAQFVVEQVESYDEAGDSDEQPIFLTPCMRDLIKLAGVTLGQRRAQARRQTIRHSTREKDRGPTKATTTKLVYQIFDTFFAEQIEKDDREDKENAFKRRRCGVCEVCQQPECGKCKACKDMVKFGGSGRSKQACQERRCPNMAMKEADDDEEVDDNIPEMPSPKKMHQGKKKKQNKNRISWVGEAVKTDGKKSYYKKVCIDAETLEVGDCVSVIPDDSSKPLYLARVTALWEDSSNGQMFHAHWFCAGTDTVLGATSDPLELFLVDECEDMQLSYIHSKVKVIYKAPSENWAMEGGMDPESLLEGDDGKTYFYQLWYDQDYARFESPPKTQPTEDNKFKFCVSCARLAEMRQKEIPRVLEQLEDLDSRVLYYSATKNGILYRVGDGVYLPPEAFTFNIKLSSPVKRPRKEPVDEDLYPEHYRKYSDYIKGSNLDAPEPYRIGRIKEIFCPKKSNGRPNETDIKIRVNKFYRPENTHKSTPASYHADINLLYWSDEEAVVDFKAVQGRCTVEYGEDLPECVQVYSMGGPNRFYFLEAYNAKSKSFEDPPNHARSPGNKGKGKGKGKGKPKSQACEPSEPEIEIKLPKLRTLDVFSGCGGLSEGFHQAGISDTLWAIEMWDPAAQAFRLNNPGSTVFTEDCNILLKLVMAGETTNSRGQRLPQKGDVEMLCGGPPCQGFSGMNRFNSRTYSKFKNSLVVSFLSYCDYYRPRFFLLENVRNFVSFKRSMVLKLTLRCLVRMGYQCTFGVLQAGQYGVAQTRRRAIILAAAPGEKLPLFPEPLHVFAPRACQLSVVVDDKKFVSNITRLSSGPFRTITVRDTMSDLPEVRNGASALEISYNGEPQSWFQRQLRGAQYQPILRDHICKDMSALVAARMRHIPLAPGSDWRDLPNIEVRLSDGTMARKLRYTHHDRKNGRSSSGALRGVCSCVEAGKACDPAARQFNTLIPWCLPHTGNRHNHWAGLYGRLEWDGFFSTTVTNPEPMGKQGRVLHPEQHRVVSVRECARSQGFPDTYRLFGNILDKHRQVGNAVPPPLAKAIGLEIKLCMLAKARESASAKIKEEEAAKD

[3] = biological target: T1, DNA (cytosine-5)-methyltransferase 1; assay: Induction of thermal stabilization of N-terminal 6xHis-FLAG-tagged […] human DNMT1 (698 to 1616 residues) extracted from Sf9 cells assessed as change in melting temperature at 10 uM by SYPRO Orange dye based PTS assay (reference value: 0.0 degreeC); format: cell-based
Target sequence in this assay (P26358 whole entry, the tested form may be a part): as the sequence (P26358 whole entry, looked up, the tested form may be a part) above

[4] = biological target: T1, DNA (cytosine-5)-methyltransferase 1; assay: Inhibition of DNMT1 (unknown origin) at 100 uM relative to control
Target sequence in this assay (P26358 whole entry, the tested form may be a part): as the sequence (P26358 whole entry, looked up, the tested form may be a part) above

Histone deacetylase 1 = Histone deacetylase 1 (Homo sapiens, UniProt Q13547); assay: Inhibition of HDAC1 (unknown origin)
Histone deacetylase 1, sequence (Q13547 whole entry): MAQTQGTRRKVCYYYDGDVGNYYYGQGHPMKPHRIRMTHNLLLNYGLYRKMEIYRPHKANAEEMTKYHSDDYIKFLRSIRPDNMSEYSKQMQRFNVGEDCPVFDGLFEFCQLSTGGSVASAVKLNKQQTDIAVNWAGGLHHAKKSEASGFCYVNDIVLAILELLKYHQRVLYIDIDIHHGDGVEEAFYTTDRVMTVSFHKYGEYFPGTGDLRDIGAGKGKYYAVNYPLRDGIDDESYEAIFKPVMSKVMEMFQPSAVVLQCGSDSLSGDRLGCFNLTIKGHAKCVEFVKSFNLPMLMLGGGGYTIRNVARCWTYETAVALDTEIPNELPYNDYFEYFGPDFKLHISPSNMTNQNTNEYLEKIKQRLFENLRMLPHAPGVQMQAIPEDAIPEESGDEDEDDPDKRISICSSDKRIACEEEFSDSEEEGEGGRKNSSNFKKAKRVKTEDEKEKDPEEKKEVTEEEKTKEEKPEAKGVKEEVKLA

[5] = biological target: DNA (cytosine-5)-methyltransferase 3A (Homo sapiens) (UniProt Q9Y6K1); assay: Inhibition of DNMT3A (unknown origin) at 100 uM relative to control
DNA (cytosine-5)-methyltransferase 3A (Homo sapiens), sequence (Q9Y6K1 whole entry, looked up): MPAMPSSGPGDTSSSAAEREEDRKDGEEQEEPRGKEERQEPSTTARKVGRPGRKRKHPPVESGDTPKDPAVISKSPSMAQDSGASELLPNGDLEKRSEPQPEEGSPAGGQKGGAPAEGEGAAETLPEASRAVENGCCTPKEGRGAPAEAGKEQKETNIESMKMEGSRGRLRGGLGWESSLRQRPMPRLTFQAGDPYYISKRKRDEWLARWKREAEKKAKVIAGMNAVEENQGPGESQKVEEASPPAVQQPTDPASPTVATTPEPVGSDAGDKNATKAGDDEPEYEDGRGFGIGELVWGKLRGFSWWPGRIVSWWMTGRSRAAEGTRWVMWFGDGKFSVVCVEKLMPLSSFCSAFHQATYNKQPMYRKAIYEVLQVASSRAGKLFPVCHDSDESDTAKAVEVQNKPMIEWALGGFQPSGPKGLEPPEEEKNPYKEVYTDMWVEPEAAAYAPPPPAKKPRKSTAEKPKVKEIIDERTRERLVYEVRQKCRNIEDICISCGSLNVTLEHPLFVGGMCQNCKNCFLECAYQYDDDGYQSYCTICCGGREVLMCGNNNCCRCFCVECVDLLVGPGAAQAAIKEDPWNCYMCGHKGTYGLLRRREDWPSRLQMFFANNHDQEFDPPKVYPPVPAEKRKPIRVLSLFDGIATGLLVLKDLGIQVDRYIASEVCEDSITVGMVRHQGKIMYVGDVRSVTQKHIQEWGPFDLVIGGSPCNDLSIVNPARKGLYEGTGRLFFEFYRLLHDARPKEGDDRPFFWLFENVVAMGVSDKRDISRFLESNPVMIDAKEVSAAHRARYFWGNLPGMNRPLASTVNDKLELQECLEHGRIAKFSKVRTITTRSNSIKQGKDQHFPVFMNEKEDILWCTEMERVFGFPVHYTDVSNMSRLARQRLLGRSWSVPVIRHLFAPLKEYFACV

[6] = biological target: T2, Protein deacetylase HDAC6 (Homo sapiens, UniProt Q9UBN7); assay: Inhibition of HDAC6 (unknown origin)
T2 sequence (Q9UBN7 whole entry): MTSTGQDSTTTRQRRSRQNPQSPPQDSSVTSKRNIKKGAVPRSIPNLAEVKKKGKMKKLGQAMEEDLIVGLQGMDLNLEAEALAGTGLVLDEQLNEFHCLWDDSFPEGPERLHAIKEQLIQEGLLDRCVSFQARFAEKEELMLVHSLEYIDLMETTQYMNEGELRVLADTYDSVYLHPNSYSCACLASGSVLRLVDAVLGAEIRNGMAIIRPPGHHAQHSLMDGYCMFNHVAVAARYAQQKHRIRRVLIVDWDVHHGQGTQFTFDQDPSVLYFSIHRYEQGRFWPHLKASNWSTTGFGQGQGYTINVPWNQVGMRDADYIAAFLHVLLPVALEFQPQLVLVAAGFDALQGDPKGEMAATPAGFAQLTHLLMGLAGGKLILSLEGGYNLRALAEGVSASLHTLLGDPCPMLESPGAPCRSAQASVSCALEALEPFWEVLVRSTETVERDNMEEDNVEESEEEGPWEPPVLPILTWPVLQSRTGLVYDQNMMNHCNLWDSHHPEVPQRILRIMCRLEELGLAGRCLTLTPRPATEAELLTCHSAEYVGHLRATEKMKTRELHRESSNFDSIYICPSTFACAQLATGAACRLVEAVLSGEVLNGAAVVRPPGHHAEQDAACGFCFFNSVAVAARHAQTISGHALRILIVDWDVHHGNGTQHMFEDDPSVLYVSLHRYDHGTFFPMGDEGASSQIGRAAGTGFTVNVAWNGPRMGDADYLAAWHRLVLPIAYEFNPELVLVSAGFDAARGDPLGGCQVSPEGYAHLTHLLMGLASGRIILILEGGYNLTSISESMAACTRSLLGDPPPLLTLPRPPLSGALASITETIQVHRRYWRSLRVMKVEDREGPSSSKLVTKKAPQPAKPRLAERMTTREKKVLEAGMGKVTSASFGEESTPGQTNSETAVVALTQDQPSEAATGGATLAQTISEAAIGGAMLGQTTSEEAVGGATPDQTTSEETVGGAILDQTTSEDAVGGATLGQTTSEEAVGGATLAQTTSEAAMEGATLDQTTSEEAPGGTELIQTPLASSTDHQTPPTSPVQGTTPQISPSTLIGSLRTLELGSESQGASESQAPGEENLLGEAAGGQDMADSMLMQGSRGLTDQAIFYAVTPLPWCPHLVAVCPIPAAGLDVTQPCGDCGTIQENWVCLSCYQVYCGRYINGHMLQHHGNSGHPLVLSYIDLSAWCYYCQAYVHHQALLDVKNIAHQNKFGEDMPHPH

[7] = biological target: T3, DNA (cytosine-5)-methyltransferase 3B (Homo sapiens, UniProt Q9UBC3); assay: Inhibition of DNMT3B (unknown origin) at 100 uM relative to control
MV4-11 [8] = assay: Antiproliferative activity against human MV4-11 cells incubated for 96 hrs by CCK8 assay; format: functional, cell-based; details: MV4-11, 96 h
[9] = biological target: T3, DNA (cytosine-5)-methyltransferase 3B; assay: Inhibition of DNMT3B (unknown origin)

| IC50 (Histone deacetylase) | SMILES | other results |
| --- | --- | --- |
| > 5000 nM | CCc1c(C#N)c(SC(C(N)=O)c2ccccc2)nc(N2CCC(NC(=O)CCCCC(=O)NO)CC2)c1C#N (stereo unspecified) | – |
| > 5000 nM | CCc1c(C#N)c(SC(C(N)=O)c2ccccc2)nc(N2CCC(NC(=O)CCC(=O)NO)CC2)c1C#N (stereo unspecified) | – |
| 250 nM | CCc1c(C#N)c(SC(C(N)=O)c2ccccc2)nc(N2CCC(NCc3ccc(C(=O)NCc4ccc(C(=O)NO)cc4)cc3)CC2)c1C#N (stereo unspecified) | – |
| – | CCc1c(C#N)c(SC(C(N)=O)c2ccccc2)nc(N2CCC(CNCc3ccc(/C=C/C(=O)NO)cc3)CC2)c1C#N (stereo unspecified) | inhibition in vivo at 45 mg/kg (MV4-11 [1]): 95%; EC50 [2]: 1090 nM; ΔTm [3]: 11 °C |
| 230 nM | CCc1c(C#N)c(SC(C(N)=O)c2ccccc2)nc(N2CCC(NC(=O)CCC(=O)Nc3ccc(/C=C/C(=O)NO)cc3)CC2)c1C#N (stereo unspecified) | – |
| > 20000 nM | CCc1c(C#N)c(SC(C(N)=O)c2ccccc2)nc(N2CCC(NC(=O)c3ccc(C(=O)Nc4ccccc4N)cc3)CC2)c1C#N (stereo unspecified) | – |
| 230 nM | CCc1c(C#N)c(SC(C(N)=O)c2ccccc2)nc(N(C)C2CCN(c3ncc(C(=O)NO)cn3)CC2)c1C#N (stereo unspecified) | inhibition [4]: 69.9%; IC50 (Histone deacetylase 1): 56.8 nM; inhibition [5]: 23.4%; IC50 [6]: 17.4 nM; inhibition [7]: 48.5% |
| 140 nM | CCc1c(C#N)c(SC(C(N)=O)c2ccccc2)nc(N2CCC(CNc3ncc(C(=O)NO)cn3)CC2)c1C#N (stereo unspecified) | – |
| 140 nM | CCc1c(C#N)c(SC(C(N)=O)c2ccccc2)nc(N2CCN(Cc3ccc(/C=C/C(=O)NO)cc3)CC2)c1C#N (stereo unspecified) | – |
| 300 nM | CCc1c(C#N)c(SC(C(N)=O)c2ccccc2)nc(N2CCC(NC(=O)CCCCCCC(=O)NO)CC2)c1C#N (stereo unspecified) | – |
| 1300 nM | CCc1c(C#N)c(SC(C(N)=O)c2ccccc2)nc(N2CCC(NC(=O)CCC(=O)Nc3ccc(C(=O)NO)cc3)CC2)c1C#N (stereo unspecified) | – |
| 280 nM | CCc1c(C#N)c(SC(C(N)=O)c2ccccc2)nc(N2CCC(NC(=O)CCCCC(=O)Nc3ccc(C(=O)NO)cc3)CC2)c1C#N (stereo unspecified) | – |
| > 20000 nM | CCc1c(C#N)c(SC(C(N)=O)c2ccccc2)nc(N2CCC(NCc3ccc(C(=O)Nc4ccccc4N)cc3)CC2)c1C#N (stereo unspecified) | – |
| 80 nM | CCc1c(C#N)c(SC(C(N)=O)c2ccccc2)nc(N2CCC(NCc3ccc(C(=O)NCc4ccc(/C=C/C(=O)NO)cc4)cc3)CC2)c1C#N (stereo unspecified) | – |
| 570 nM | CCc1c(C#N)c(SC(C(N)=O)c2ccccc2)nc(N2CCC(NC(=O)CCCC(=O)Nc3ccc(C(=O)NO)cc3)CC2)c1C#N (stereo unspecified) | – |
| 130 nM | CCc1c(C#N)c(SC(C(N)=O)c2ccccc2)nc(N2CCC(NCc3ccc(/C=C/C(=O)NO)cc3)CC2)c1C#N (stereo unspecified) | inhibition in vivo at 45 mg/kg (MV4-11 [1]): 80%; IC50 (MV4-11 [8]): 660 nM |

| IC50 (Histone deacetylase) | SMILES | other results |
| --- | --- | --- |
| 870 nM | CCc1c(C#N)c(SC(C(N)=O)c2ccccc2)nc(N2CCC(NC(=O)c3ccc(C(=O)NO)cc3)CC2)c1C#N (stereo unspecified) | – |
| 330 nM | CCc1c(C#N)c(SC(C(N)=O)c2ccccc2)nc(N2CCC(NC(=O)CCCC(=O)NCc3ccc(C(=O)NO)cc3)CC2)c1C#N (stereo unspecified) | – |
| > 20000 nM | CCc1c(C#N)c(SC(C(N)=O)c2ccccc2)nc(N2CCC(NC(=O)Cc3ccc(C(=O)Nc4ccccc4N)cc3)CC2)c1C#N (stereo unspecified) | – |
| – | CCc1c(C#N)c(S[C@H](C(N)=O)c2ccccc2)nc(N2CCC(CNCc3ccc(/C=C/C(=O)NO)cc3)CC2)c1C#N | EC50 [2]: 1180 nM; ΔTm [3]: 9 °C |
| 190 nM | CCc1c(C#N)c(SC(C(N)=O)c2ccccc2)nc(N2CCC(Nc3ncc(C(=O)NO)cn3)CC2)c1C#N (stereo unspecified) | – |
| 100 nM | CCc1c(C#N)c(CN(C)C2CCN(c3ncc(C(=O)NO)cn3)CC2)nc(SC(C(N)=O)c2ccccc2)c1C#N (stereo unspecified) | – |
| 60 nM | CCc1c(C#N)c(SC(C(N)=O)c2ccccc2)nc(N2CCN(c3ncc(C(=O)NO)cn3)CC2)c1C#N (stereo unspecified) | – |
| 1070 nM | CCc1c(C#N)c(SC(C(N)=O)c2ccccc2)nc(N2CCC(NC(=O)CCCC(=O)NO)CC2)c1C#N (stereo unspecified) | – |
| 160 nM | CCc1c(C#N)c(SC(C(N)=O)c2ccccc2)nc(N(C)CCNCc2ccc(/C=C/C(=O)NO)cc2)c1C#N (stereo unspecified) | – |
| 1160 nM | CCc1c(C#N)c(SC(C(N)=O)c2ccccc2)nc(N2CCC(NC(=O)CCCCCCCC(=O)NO)CC2)c1C#N (stereo unspecified) | – |
| 210 nM | CCc1c(C#N)c(SC(C(N)=O)c2ccccc2)nc(N2CCC(NC(=O)CCCCCC(=O)NO)CC2)c1C#N (stereo unspecified) | – |
| – | O=C(NO)C1CCN(CC(O)COC(Cn2c3ccccc3c3ccccc32)Cn2c3ccccc3c3ccccc32)CC1 (stereo unspecified) | IC50 [9]: 1320 nM |
| > 5000 nM | CCc1c(C#N)c(SC(C(N)=O)c2ccccc2)nc(N2CCC(NCc3ccc(C(=O)NO)cc3)CC2)c1C#N (stereo unspecified) | – |
| > 20000 nM | CCc1c(C#N)c(SC(C(N)=O)c2ccccc2)nc(N2CCC(NC(=O)CCCC(=O)Nc3ccccc3N)CC2)c1C#N (stereo unspecified) | – |
| 230 nM | CCc1c(C#N)c(SC(C(N)=O)c2ccccc2)nc(N2CCC(NC(=O)CCC(=O)NCc3ccc(C(=O)NO)cc3)CC2)c1C#N (stereo unspecified) | – |
